Source: US20230257383A1, “COMPOUND SERVING AS BTK INHIBITOR, PREPARATION METHOD THEREFOR, AND USE THEREOF” (CHENGDU HYPERWAY PHARMACEUTICALS CO., LTD., priority 2020, published 2023)
Read-outs that look alike come from different tables or passages of the source.

Columns and labels:
BT474 cell proliferation = test: In vitro cell proliferation inhibitory activity test (CTG), BT474; type: cell-based; conditions: Homo sapiens, BT-474, BT474 cell proliferation
Experimental: (§1) Test Example 4: In Vitro Cell Proliferation Inhibitory Activity Test
(§2) Cells were cultured in 1640 medium, added with 10% inactivated FBS and 1% double antibiotics, and cultured at 37° C. and 5% CO2.
(§3) (1) Cells were routinely cultured until the cell density was 80%-90%, and the cells were harvested when their number reached the requirement.
(§4) (2) Cells were resuspended with corresponding culture medium, counted, and prepared into cell suspension at appropriate density.
(§5) (3) The cell suspension was added to a 96-well plate, 100 μL per well.
(§6) (4) Cells were cultured overnight in a 37° C., 5% CO2 incubator.
(§7) (1) The compounds to be tested were diluted with DMSO to make a stock solution with a final concentration of 20 mM for later use.
(§8) (2) The stock solution was diluted 10 times from 20 mM to 2 mM with DMSO, and then diluted 3 times from 2 mM to 9 concentrations.
(§9) (3) The blank control wells were cells plus 0.5% DMSO, as high-reading control wells.
(§10) (4) Wells with no cells and only medium were used as low-reading control wells.
(§11) 4: Cell treatment with compound
(§12) (1) 24 h after the cells were plated, the compounds acted alone, and 99 μL of growth medium was added to each well, followed by 1 μL of the compound prepared in step 3. The plate was shaken gently to mix uniformly, and then placed in a 37° C., 5% CO2 incubator.
(§13) (2) The cell plate was placed in an incubator for 72 h.
(§14) 5: Detection by CTG method
(§15) (1) The cell plate to be tested was placed at room temperature for 30 min, and 100 μL of medium was discarded from each well.
(§16) (2) 100 μL of CTG reagent (CelltiterGlo kit) was added to each well, placed on a fast shaker for 2 min, and stood at room temperature in the dark for 30 min.
(§17) (3) The chemiluminescent signal value was read with the Envision instrument.
(§18) IC50 was calculated by using GraphPad Prism 8 software. The IC50 (half inhibitory concentration) of the compound was derived using the following nonlinear fitting formula, and the results are shown in the following table:
(§19) Y=Bottom+(Top−Bottom)/(1+10^((Log IC50−X)×HillSlope))
(§20) X: log value of compound concentration, Y: inhibition rate (% inhibition)
(§21) Inhibition rate (% inhibition)=(reading of high-reading control well-reading of compound well)/(reading of high-reading control well-reading of low-reading control well)×100

[1] = Blood-brain barrier permeability test, oral, SD rats; type: in vivo; conditions: rat, oral 10 mg/kg single dose; for concentration at 1 h / Kp at 1 h: time point 1 h; for concentration at 2 h / Kp at 2 h: time point 2 h; for concentration at 4 h / Kp at 4 h: time point 4 h
Experimental: Test Example 6: Blood-Brain Barrier Permeability Test
Each test compound was administered orally at a single dose of 10 mg/kg to SD rats for pharmacokinetic study. Each group included 9 rats. The test compound was dissolved in 5% DMSO+10% solutol+85% saline, vortexed for 1-2 min, and ultrasonicated for 5-10 min to prepare into a colorless, transparent and clear administration solution. Animals were fasted overnight before administration. 1 h, 2 h, and 4 h after administration, three SD rats were selected from each group to take about 0.2-0.3 mL of blood through their orbit. The blood sample was placed on ice once collected, and centrifuged to separate the plasma within 15 min (centrifugation conditions: 8000 rpm, 1 min, room temperature). The collected plasma was stored at −20° C. before analysis. Immediately after blood collection, the cerebrospinal fluid and brain tissue were collected. The cerebrospinal fluid was draw out by dural puncture with a micro-sampler syringe under direct vision. Namely, about 100 μl of cerebrospinal fluid was collected with a 100 μl micro sample syringe from the rat that was anesthetized by chloral hydrate, with the head-fixed, the back hair-cut off, a transverse incision (2 cm) made at the line connecting the roots of the two ears, and the muscle layer of the neck and skull base bluntly scraped to expose the foramen magnum. The cerebrospinal fluid was stored at −20° C. before analysis. The rat then was sacrificed immediately, with its head cut off. The dissected brain tissue, with the surface capillaries peeled off, was weighed, added with 3 times the amount of cold saline, homogenized by a homogenizer for 1 min, and stored at −20° C. before analysis. 20 μL of plasma sample and brain homogenate sample was respectively added into 200 μL of working internal standard solution (the same volume of vehicle was added to the blank instead of internal standard), vortexed for 1 min, and centrifuged at 13500 rpm for 10 min. 100 μL of the supernatant was taken and analyzed by LC-MS/MS. 20 μL of the cerebrospinal fluid was added into 60 μL of working internal standard solution (the same volume of vehicle, instead of internal standard, was added to the blank), vortexed for 1 min, and centrifuged at 13500 rpm for 10 min. 50 μL of the supernatant was taken and analyzed by LC-MS/MS.

[2] = Liver microsome metabolic stability test (human); type: in vitro ADME; conditions: for microsomal CLint: read-out: CLint (μL/min/mg) Human
Experimental: (§22) 1: To the sample wells of T0, T5, T10, T20, T30, T60 and NCF60, 10 μL of the test or reference working solution and 80 μL of microsome working solution (hepatic microsome with a protein concentration of 0.5 mg/mL) were added, and to Blank60 well, only the microsome working solution was added. Then samples of the Blank60, T5, T10, T20, T30 and T60 other than TO and NCF60 were placed in a 37° C. water bath and pre-incubated for about 10 min.
(§23) 2: To the TO sample well, 300 μL of stop solution (containing 200 ng/mL tolbutamide and 200 ng/mL labetalol in acetonitrile solution) was added first, followed by 10 μL of NADPH regeneration system working solution.
(§24) 3: After the pre-incubation of Blank60, T5, T10, T20, T30 and T60 incubation plates, 10 μL of NADPH regeneration system working solution was added to each sample well to start the reaction, and 10 μL of 100 mM potassium phosphate buffer was added to the NCF60 sample well.
(§25) 4: After incubation for an appropriate time (such as 5, 10, 20, 30 and 60 min), to each test sample well and control well of the Blank60, T5, T10, T20, T30, T60 and NCF60 plates, 300 μL of stop solution was added to terminate the reaction.
(§26) 5: All sample plates were shaken to mix well and centrifuged at 4000 rpm for 20 min, and 100 μL of the supernatant of the test sample or control sample was taken and diluted with 300 μL of pure water for LC-MS/MS analysis.
(§27) 6: Data analysis: T1/2 and CLint(mic) (μL/min/mg) values were calculated according to the first-order elimination kinetics. The first-order elimination kinetics equation was: […]

[3] = Liver microsome metabolic stability test (rat); type: in vitro ADME; conditions: for microsomal CLint: read-out: CLint (μL/min/mg) Rat
Experimental: as §22, §23, §24, §25, §26, §27

[4] = tested on: NCI-N87 cell proliferation; test: In vitro cell proliferation inhibitory activity test (CTG), NCI-N87; type: cell-based; conditions: Homo sapiens
Experimental: as §1, §2, §3, §4, §5, §6, §7, §8, §9, §10, §11, §12, §13, §14, §15, §16, §17, §18, §19, §20, §21

[5] = brain, read-out: Drug concentration in brain tissue
[6] = brain/plasma, read-out: Brain tissue/plasma
[7] = cerebrospinal fluid, read-out: Drug concentration in cerebrospinal fluid
[8] = cerebrospinal fluid/plasma, read-out: Cerebrospinal fluid/plasma
[9] = plasma, read-out: Plasma drug concentration

Row | Structure (SMILES) | IC50 (BT474 cell proliferation) [nM] | concentration at 1 h [1, 5] [ng/g] | concentration at 2 h [1, 5] [ng/g] | concentration at 4 h [1, 5] [ng/g] | Kp at 1 h [1, 6] | Kp at 2 h [1, 6] | Kp at 4 h [1, 6] | concentration at 1 h [1, 7] [ng/mL] | concentration at 2 h [1, 7] [ng/mL] | concentration at 4 h [1, 7] [ng/mL] | Kp at 1 h [1, 8] | Kp at 2 h [1, 8] | Kp at 4 h [1, 8] | concentration at 1 h [1, 9] [ng/mL] | concentration at 2 h [1, 9] [ng/mL] | concentration at 4 h [1, 9] [ng/mL] | microsomal CLint ([2]; liver microsomes) [µL/min/mg] | microsomal CLint ([3]; liver microsomes) [µL/min/mg] | IC50 [4] [nM] | further results
1 | Nc1nccn2c(C3CCC(CO)OC3)nc(-c3ccc(C(F)(F)c4ccccc4)cc3)c12 (single isomer, unassigned) [Example 111-P1] | 1550 | 1250 | 1070 | 787 | 0.62 | 0.67 | 0.59 | 66.2 | 52.3 | 41.9 | 0.033 | 0.033 | 0.031 | 2010 | 1580 | 1340 | – | – | – | –
2 | Nc1nccn2c(C34CCC(CO)(CC3)OC4)nc(-c3ccc(C(F)(F)c4ccccc4)cc3)c12 [Example 125] | 340 | 1340 | 1170 | 1060 | 0.91 | 1.03 | 0.84 | 34.1 | 30.4 | 29.6 | 0.023 | 0.027 | 0.024 | 1470 | 1130 | 1260 | 14.6 | 21.7 | – | –
3 | Nc1nccn2c(C34CCC(CO)(CC3)OC4)nc(-c3ccc(C(F)(F)c4ccccc4F)cc3)c12 [Example 145] | 40.9 | 643 | – | 910 | 0.39 | – | 0.53 | 59.7 | – | 74.3 | 0.036 | – | 0.044 | 1650 | – | 1710 | 22.7 | 22.8 | 37.5 | % Remaining (60 min) Human ([2]; 60 min): 46.2%; half-life ([2]; liver microsomes, 0.5 mg/mL protein, read-out: T1/2 (min) Human): 61.2 min; % Remaining (60 min) Rat ([3]; 60 min): 49.6%; half-life ([3]; liver microsomes, 0.5 mg/mL protein, read-out: T1/2 (min) Rat): 60.8 min
4 | Nc1nccn2c(C34CCC(CO)(CC3)OC4)nc(-c3ccc(C(F)(F)c4cccc(Cl)c4F)cc3)c12 [Example 152] | 65.5 | 288 | 378 | 232 | 0.27 | 0.39 | 0.32 | 187 | 227 | 181 | 0.18 | 0.24 | 0.25 | 1060 | 961 | 715 | 45.9 | 102 | 43.4 | –
5 | Nc1nccn2c(C34CCC(CO)(CC3)OC4)nc(-c3ccc(C(F)(F)c4ccccc4Cl)cc3)c12 [Example 155] | 46.4 | 1520 | 1860 | 1260 | 1.21 | 1.3 | 1.19 | 292 | 374 | 220 | 0.23 | 0.26 | 0.21 | 1250 | 1430 | 1060 | 41.7 | 62.2 | – | –
6 | Cc1cc(Nc2ncnc3ccc(NC4=NC(C)(C)CO4)cc23)ccc1Oc1ccn2ncnc2c1 [Tucatinib, reference compound] | 30.2 | 26.5 | 29.5 | 24.5 | 0.013 | 0.015 | 0.013 | 19.2 | 10.4 | 14.9 | 0.009 | 0.005 | 0.008 | 2030 | 1940 | 1900 | 43.7 | 34.9 | 26 | –
